Source: ChEMBL document CHEMBL1131977, “Synthesis and in vitro activity of new oxazolidinone antibacterial agents having substituted isoxazoles” (1999)
In brackets after ≈: the same amount, converted by molar mass.

Experiments:
Assay type in all cases: functional
Staphylococcus aureus [1] = experiment: In vitro antibacterial activity against Staphylococcus aureus (S. a.) ATCC 29213.
Streptococcus pyogenes [2] = experiment: In vitro antibacterial activity against Streptococcus pyogenes C6003 (S.p.2).
Enterococcus faecium [3] = experiment: In vitro antibacterial activity against Enterococcus faecium C6301 (E.f.2).
[4] = test system: Staphylococcus epidermidis; experiment: In vitro antibacterial activity against Staphylococcus epidermis (S.e.2) C2235.
Enterococcus faecalis = experiment: In vitro antibacterial activity against Enterococcus faecalis C6291 (E.f.1).
Staphylococcus aureus [5] = experiment: In vitro antibacterial activity against ciprofloxacin-resistant Staphylococcus aureus (CRSA) C6043.
Streptococcus pyogenes [6] = experiment: In vitro antibacterial activity against Streptococcus pyogenes ATCC 8668 (S.p.1).
Enterococcus faecium [7] = experiment: In vitro antibacterial activity against vancomycin-resistant Enterococcus faecium C6487 (VRE).
Staphylococcus aureus [8] = experiment: In vitro antibacterial activity against methicillin-resistant Staphylococcus aureus (MRSA) C6068.
Staphylococcus aureus [9] = experiment: In vitro antibacterial activity against methicillin-susceptible Staphylococcus aureus (MSSA) C2214.
[10] = test system: Staphylococcus epidermidis; experiment: In vitro antibacterial activity against Staphylococcus epidermis (S.e.1) […].

Structure (SMILES) | MIC (Staphylococcus aureus [1]) | MIC (Streptococcus pyogenes [2]) | MIC (Enterococcus faecium [3]) | MIC [4] | MIC (Enterococcus faecalis) | MIC (Staphylococcus aureus [5]) | MIC (Streptococcus pyogenes [6]) | MIC (Enterococcus faecium [7]) | MIC (Staphylococcus aureus [8]) | MIC (Staphylococcus aureus [9]) | MIC [10]
CC(=O)NC[C@H]1CN(c2ccc(N3CCN(C(=O)c4cc(C)no4)CC3)c(F)c2)C(=O)O1 | 4 µg/mL (≈ 8.98 µM) | 0.5 µg/mL (≈ 1.12 µM) | 2 µg/mL (≈ 4.49 µM) | 1 µg/mL (≈ 2.24 µM) | 4 µg/mL (≈ 8.98 µM) | 4 µg/mL (≈ 8.98 µM) | 0.5 µg/mL (≈ 1.12 µM) | 2 µg/mL (≈ 4.49 µM) | 2 µg/mL (≈ 4.49 µM) | 8 µg/mL (≈ 18 µM) | 0.5 µg/mL (≈ 1.12 µM)
CC(=O)NC[C@H]1CN(c2ccc(N3CCN(C(=O)c4cc(-c5csnn5)no4)CC3)c(F)c2)C(=O)O1 | 2 µg/mL (≈ 3.88 µM) | 0.5 µg/mL (≈ 0.97 µM) | 1 µg/mL (≈ 1.94 µM) | 1 µg/mL (≈ 1.94 µM) | 1 µg/mL (≈ 1.94 µM) | 2 µg/mL (≈ 3.88 µM) | 0.5 µg/mL (≈ 0.97 µM) | 1 µg/mL (≈ 1.94 µM) | 1 µg/mL (≈ 1.94 µM) | 2 µg/mL (≈ 3.88 µM) | 0.5 µg/mL (≈ 0.97 µM)
CC(=O)NC[C@H]1CN(c2ccc(N3CCN(Cc4cc(-c5ccccn5)no4)CC3)c(F)c2)C(=O)O1 | 2 µg/mL (≈ 4.04 µM) | 0.5 µg/mL (≈ 1.01 µM) | 2 µg/mL (≈ 4.04 µM) | 1 µg/mL (≈ 2.02 µM) | 2 µg/mL (≈ 4.04 µM) | 2 µg/mL (≈ 4.04 µM) | 0.5 µg/mL (≈ 1.01 µM) | 2 µg/mL (≈ 4.04 µM) | 2 µg/mL (≈ 4.04 µM) | 4 µg/mL (≈ 8.09 µM) | 1 µg/mL (≈ 2.02 µM)
CC(=O)NC[C@H]1CN(c2ccc(N3CCN(Cc4cc(-c5ccc(C#N)cc5)no4)CC3)c(F)c2)C(=O)O1 | 16 µg/mL (≈ 30.9 µM) | 2 µg/mL (≈ 3.86 µM) | 16 µg/mL (≈ 30.9 µM) | 8 µg/mL (≈ 15.4 µM) | 16 µg/mL (≈ 30.9 µM) | 16 µg/mL (≈ 30.9 µM) | 2 µg/mL (≈ 3.86 µM) | 8 µg/mL (≈ 15.4 µM) | 8 µg/mL (≈ 15.4 µM) | 16 µg/mL (≈ 30.9 µM) | 4 µg/mL (≈ 7.71 µM)
CC(=O)NC[C@H]1CN(c2ccc(N3CCN(C(=O)c4cc(COC(=O)N(C)C)no4)CC3)c(F)c2)C(=O)O1 | 4 µg/mL (≈ 7.51 µM) | 0.5 µg/mL (≈ 0.939 µM) | 2 µg/mL (≈ 3.76 µM) | 2 µg/mL (≈ 3.76 µM) | 2 µg/mL (≈ 3.76 µM) | 4 µg/mL (≈ 7.51 µM) | 0.5 µg/mL (≈ 0.939 µM) | 2 µg/mL (≈ 3.76 µM) | 2 µg/mL (≈ 3.76 µM) | 4 µg/mL (≈ 7.51 µM) | 1 µg/mL (≈ 1.88 µM)
COc1cccc(-c2cc(CN3CCN(c4ccc(N5C[C@H](CNC(C)=O)OC5=O)cc4F)CC3)on2)c1 | 4 µg/mL (≈ 7.64 µM) | 1 µg/mL (≈ 1.91 µM) | 4 µg/mL (≈ 7.64 µM) | 4 µg/mL (≈ 7.64 µM) | 8 µg/mL (≈ 15.3 µM) | 2 µg/mL (≈ 3.82 µM) | 4 µg/mL (≈ 7.64 µM) | 1 µg/mL (≈ 1.91 µM) | 4 µg/mL (≈ 7.64 µM) | 4 µg/mL (≈ 7.64 µM) | 4 µg/mL (≈ 7.64 µM)
CC(=O)NC[C@H]1CN(c2ccc(N3CCN(C(=O)c4cc(-c5cccs5)no4)CC3)c(F)c2)C(=O)O1 | 1 µg/mL (≈ 1.95 µM) | 0.5 µg/mL (≈ 0.974 µM) | 1 µg/mL (≈ 1.95 µM) | 1 µg/mL (≈ 1.95 µM) | 1 µg/mL (≈ 1.95 µM) | 1 µg/mL (≈ 1.95 µM) | 0.5 µg/mL (≈ 0.974 µM) | 1 µg/mL (≈ 1.95 µM) | 1 µg/mL (≈ 1.95 µM) | 1 µg/mL (≈ 1.95 µM) | 0.25 µg/mL (≈ 0.487 µM)
CC(=O)NC[C@H]1CN(c2ccc(N3CCN(Cc4cc(C)no4)CC3)c(F)c2)C(=O)O1 | 16 µg/mL (≈ 37.1 µM) | 16 µg/mL (≈ 37.1 µM) | 16 µg/mL (≈ 37.1 µM) | 16 µg/mL (≈ 37.1 µM) | 16 µg/mL (≈ 37.1 µM) | 16 µg/mL (≈ 37.1 µM) | 16 µg/mL (≈ 37.1 µM) | 16 µg/mL (≈ 37.1 µM) | 16 µg/mL (≈ 37.1 µM) | 16 µg/mL (≈ 37.1 µM) | 16 µg/mL (≈ 37.1 µM)
CC(=O)NC[C@H]1CN(c2ccc(N3CCN(C(=O)CO)CC3)c(F)c2)C(=O)O1 [EPEREZOLID] | 2 µg/mL (≈ 5.07 µM) | 0.5 µg/mL (≈ 1.27 µM) | 1 µg/mL (≈ 2.54 µM) | 1 µg/mL (≈ 2.54 µM) | 2 µg/mL (≈ 5.07 µM) | 2 µg/mL (≈ 5.07 µM) | 0.25 µg/mL (≈ 0.634 µM) | 1 µg/mL (≈ 2.54 µM) | 1 µg/mL (≈ 2.54 µM) | 2 µg/mL (≈ 5.07 µM) | 0.5 µg/mL (≈ 1.27 µM)
